This is an account of results in PubChem BioAssay (NCI).

Molecules are shown by their SMILES.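 Following 48 hours of exposure in 96-well plates, responses at five concentrations were used to interpolate endpoints linearly. The concentration for full growth arrest is given as TGI.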

Some test systems named below: 786-0 renal; A549 NSCLC; CAKI-1 renal; CCRF-CEM leukemia; HL-60(TB) leukemia; HOP-92 NSCLC; LOX IMVI melanoma; MALME-3M melanoma; NCI-H226 lung; NCI-H23 lung; NCI-H460 lung; OVCAR-3 ovarian; OVCAR-5 ovarian; OVCAR-8 ovarian; SF-295 CNS; SK-OV-3 ovarian; T-47D breast; TK-10 renal; U251 CNS.
Assay in all cases: NCI anticancer screen, dose series, 48 h

Regarding `CN(C)CCCCN1c2ccccc2Sc2ccc(C(=O)c3ccccc3)cc21`, the TGI with 786-0 renal turned out to be 4.83 µM; with A549 NSCLC, 7.22 µM; in the assay on CAKI-1 renal it was 5.32 µM; in the assay on CCRF-CEM leukemia it was 6.61 µM; in the assay on HL-60(TB) leukemia, 3.97 µM; with HOP-92 NSCLC it was 8.99 µM. For the same compound, the TGI in the assay with LOX IMVI melanoma is 3.44 µM; in the assay on MALME-3M melanoma, 3.33 µM; with NCI-H226 lung it was 22.8 µM; with NCI-H23 lung, 34.2 µM; in the assay with NCI-H460 lung, 5.46 µM; in the assay with OVCAR-3 ovarian, 9.88 µM. Moreover, the TGI in the assay on OVCAR-5 ovarian was found to be 13.8 µM; in the assay on OVCAR-8 ovarian, 7.91 µM; in the assay with SF-295 CNS it was 4.82 µM; in the assay with SK-OV-3 ovarian it was 27.2 µM; in the assay with T-47D breast, 13 µM; in the assay with TK-10 renal, 8.42 µM. Further, the TGI with U251 CNS was found to be 7.52 µM.
With `CC(O)C1(CNc2cc(Cl)nc(N)n2)CC(CCc2ccccc2)C1` (stereo unspecified), the TGI with 786-0 renal stood at 39 µM; in the assay with A549 NSCLC it was 31 µM; in the assay with CAKI-1 renal, 29.4 µM; in the assay on CCRF-CEM leukemia it was 94.5 µM; with HL-60(TB) leukemia it was 41.7 µM; with HOP-92 NSCLC it was 25 µM. For the same compound, the TGI in the assay on LOX IMVI melanoma turned out to be 16.9 µM; in the assay on MALME-3M melanoma, 26.4 µM; in the assay on NCI-H226 lung, 30.8 µM; in the assay with NCI-H23 lung, 19.4 µM; in the assay with NCI-H460 lung, 27.7 µM; in the assay on OVCAR-3 ovarian, 33.7 µM. In addition, the TGI with OVCAR-5 ovarian was found to be 33.9 µM; with OVCAR-8 ovarian it was 32 µM; with SF-295 CNS, 27.6 µM; with SK-OV-3 ovarian, 29.2 µM; with T-47D breast, 44.1 µM; in the assay on TK-10 renal it was 43.1 µM. The TGI in the assay on U251 CNS was determined as 27.6 µM.
As for `Cc1ccc(NC2=N/C(=C/c3ccccc3)C(Cl)=N2)cc1`, the TGI in the assay with 786-0 renal was > 100 µM; in the assay with A549 NSCLC it was > 100 µM; in the assay with CAKI-1 renal it was > 100 µM; in the assay with CCRF-CEM leukemia, > 100 µM; in the assay on HL-60(TB) leukemia it was > 63.3 µM; with HOP-92 NSCLC, > 100 µM. Also, the TGI with LOX IMVI melanoma, in the assay on MALME-3M melanoma, with NCI-H226 lung, with NCI-H23 lung, with NCI-H460 lung and in the assay with OVCAR-3 ovarian was > 100 µM throughout. Besides, the TGI in the assay on OVCAR-5 ovarian, in the assay on OVCAR-8 ovarian, in the assay with SF-295 CNS, in the assay with SK-OV-3 ovarian, with T-47D breast and with TK-10 renal was > 100 µM in each case. Further, the TGI with U251 CNS was > 100 µM.
Take `CC(=N\N=C\c1ccccn1)/C(C)=N/N=C(C)/C(C)=N/N=C/c1ccccn1`: the TGI in the assay with 786-0 renal, in the assay on A549 NSCLC, in the assay with CAKI-1 renal, in the assay on CCRF-CEM leukemia, in the assay with HL-60(TB) leukemia and in the assay on HOP-92 NSCLC was > 100 µM in each case. The TGI with LOX IMVI melanoma, in the assay with MALME-3M melanoma, in the assay with NCI-H226 lung, in the assay with NCI-H23 lung, with NCI-H460 lung and in the assay with OVCAR-3 ovarian was > 100 µM each time. Further, the TGI in the assay with OVCAR-5 ovarian, in the assay with OVCAR-8 ovarian, with SF-295 CNS, in the assay with SK-OV-3 ovarian, in the assay with T-47D breast and with TK-10 renal was > 100 µM each time. The TGI in the assay on U251 CNS is > 100 µM.
On to `CSc1nc(SC)c2ncn(C3CC(Oc4ccc(C)cc4)C(COc4ccc(C)cc4)O3)c2n1` (stereo unspecified), for which the TGI with 786-0 renal, with A549 NSCLC, in the assay on CAKI-1 renal, in the assay on CCRF-CEM leukemia, with HL-60(TB) leukemia and in the assay with HOP-92 NSCLC was > 100 µM each time. Besides, the TGI in the assay on LOX IMVI melanoma, in the assay on MALME-3M melanoma, with NCI-H226 lung, with NCI-H23 lung, in the assay with NCI-H460 lung and with OVCAR-3 ovarian was > 100 µM in each case. Moreover, the TGI in the assay with OVCAR-5 ovarian, in the assay on OVCAR-8 ovarian, in the assay with SF-295 CNS, in the assay with SK-OV-3 ovarian, with T-47D breast and in the assay on TK-10 renal was > 100 µM throughout. For the same compound, the TGI in the assay on U251 CNS was > 100 µM.
Turning to `C/C(=N\NC(=S)N(C)CCN(C)C(=S)N/N=C(\C)c1ccccn1)c1ccccn1`, the TGI in the assay on 786-0 renal is > 100 µM; in the assay on A549 NSCLC, 13.8 µM; in the assay with CAKI-1 renal it was 11.8 µM; with CCRF-CEM leukemia, 12.1 µM; in the assay on HL-60(TB) leukemia it was 3.95 µM; in the assay on HOP-92 NSCLC it was 16.4 µM. Besides, the TGI was found to be 22.6 µM with LOX IMVI melanoma; 11.1 µM with MALME-3M melanoma; 3.48 µM with NCI-H226 lung; 28.5 µM in the assay with NCI-H23 lung; 9.53 µM with OVCAR-3 ovarian; 42 µM in the assay with OVCAR-5 ovarian. Further, the TGI in the assay with OVCAR-8 ovarian was 7.32 µM; in the assay with SF-295 CNS it was 19.6 µM; in the assay with SK-OV-3 ovarian, 20.1 µM; in the assay on T-47D breast it was 19 µM; in the assay with TK-10 renal it was 7.75 µM; with U251 CNS it was 18.9 µM.
`O=C1C(Cl)C(c2cc3cc(Br)ccc3nc2Cl)N1c1ccc(Cl)cc1` (stereo unspecified): the TGI in the assay with 786-0 renal was 9.22 µM; in the assay on A549 NSCLC it was > 25 µM; with CAKI-1 renal, 9.3 µM; in the assay on CCRF-CEM leukemia it was 11.4 µM; in the assay with HL-60(TB) leukemia it was 15.5 µM; in the assay on HOP-92 NSCLC, 7.2 µM. For the same compound, the TGI came out at 3.38 µM in the assay on LOX IMVI melanoma; 8.91 µM with MALME-3M melanoma; 12.3 µM in the assay on NCI-H226 lung; 17.2 µM in the assay on NCI-H23 lung; 20.9 µM in the assay with NCI-H460 lung; 13.8 µM with OVCAR-3 ovarian. For the same compound, the TGI in the assay with OVCAR-5 ovarian was > 25 µM; with OVCAR-8 ovarian, > 25 µM; in the assay with SF-295 CNS, > 25 µM; in the assay with SK-OV-3 ovarian it was > 25 µM; in the assay with T-47D breast it was 23.8 µM; in the assay on TK-10 renal, 13.3 µM.
